Article doi:10.1101/2022.10.28.514248v1 (biorxiv, 2022)
Substitutions are numbered along the chain they refer to.

Tests used:
GDAP1ΔTM [1] = molecular target: T1, GDAP1ΔTM (Mus musculus, UniProt O88741); assay: anti-4HNE Western blot of Michael adduct formation, Hill fit; format: biochemical
T1 sequence (O88741 1-322): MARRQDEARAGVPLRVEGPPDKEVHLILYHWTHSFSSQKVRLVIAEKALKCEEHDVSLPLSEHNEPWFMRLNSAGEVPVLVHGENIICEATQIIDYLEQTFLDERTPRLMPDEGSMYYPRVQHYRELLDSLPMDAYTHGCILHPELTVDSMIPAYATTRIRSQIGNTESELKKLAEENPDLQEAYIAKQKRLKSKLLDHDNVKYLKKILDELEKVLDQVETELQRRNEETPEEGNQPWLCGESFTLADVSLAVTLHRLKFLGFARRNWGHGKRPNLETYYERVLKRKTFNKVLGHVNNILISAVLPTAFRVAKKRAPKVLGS

GDAP1ΔTM [2] = molecular target: T2, GDAP1ΔTM (Mus musculus, UniProt O88741, T157P); assay: native PAGE titration, band quantification, Hill fit; format: binding
T2 sequence (O88741 1-322 T157P): T1 sequence (O88741 1-322) with T157P

GDAP1ΔTM [3] = molecular target: T1, GDAP1ΔTM; assay: as above; format: binding
GDAP1ΔTM [4] = molecular target: T1, GDAP1ΔTM; assay: fluorescence polarization, N-terminally fluorescein-labelled protein; format: binding

EC50 (GDAP1ΔTM [1]) [µM] | Kd (GDAP1ΔTM [2]) [µM] | Kd (GDAP1ΔTM [3]) [µM] | Kd (GDAP1ΔTM [4]) [µM] | SMILES
241 ± 52 | 1330 ± 259 | 398 |  | CCCCCC(O)/C=C/C=O (stereo not shown) [4-hydroxynonenal]
 |  |  | ~34 | O=C(O)CCCCCCCCCCCCCCC(=O)O [thapsic acid]
